The values that follow come from US8124794B2, “Method for the asymmetric synthesis of beta-lactone compounds” (Sanford-Burnham Medical Research Institute, priority 2006, dated 2012).

The target of experiment [1] is T1, recombinant thioesterase domain of fatty acid synthase (FAS TE) (Homo sapiens, UniProt P49327).
T1 construct: Expression of the recombinant thioesterase domain of FAS was performed as described previously
Description: Fluorogenic assay (4-MUH substrate) for inhibition of recombinant FAS thioesterase domain. Type of experiment: biochemical. The source says:
The synthetic fluorogenic substrate, 4-methylumbelliferyl heptanoate (4-MUH), was purchased from Sigma (St. Louis, Mo.). […] Results are the average of triplicate time points.

The test system of another experiment is MDA-MB-435 cells. In words: Apoptosis by DNA fragmentation ELISA. As to conditions: Homo sapiens, MDA-MB-435, read-out: half-maximal apoptotic response.
Experiment [2] concerns cellular fatty acid synthesis in MDA-MB-435 cells. Description: [14C]-acetate incorporation into cellular fatty acids, MDA-MB-435 cells. To be noted: MDA-MB-435, 100 μM.
Description: Cells were seeded at density of 2.5×10^4 cells/well in 24-well plates. Prior to the addition of orlistat, the wells were washed twice with PBS. Serum-free RPMI containing 300 μg/ml BSA and insulin/transferrin/selenium supplement was added to the wells, with or without orlistat. The cells were incubated for two hours prior to the addition of 1 μCi of [^14C]-acetate to label newly synthesized fatty acids. After two hours, the labeling medium was removed and the cells were washed with PBS/EDTA and trypsinized The cells pellets were washed twice more with PBS and fatty acids were extracted by the addition of an equal mixture of chloroform-methanol for 30 minutes. The extracted material was dried under a stream of N2 gas and extracted further with water-saturated butanol. The butanol was removed by drying under a stream of N2 gas and labeled fatty acids were detected by scintillation counting.
MDA-MB-435 cells were fed [^14C]-acetate as a precursor, and treated with orlistat.
The test system of another experiment is HUVEC. Description: HUVEC proliferation by BrdU incorporation. The format is cell-based, human. As to conditions: for IC50: Homo sapiens, HUVEC, read-out: concentration required for a half maximal effect on proliferation. As for the experimental part:
The effect of orlistat on HUVEC proliferation induced by several mitogenic stimuli was assessed by BrdU incorporation. Orlistat and mitogen were added simultaneously to serum-starved cells, and BrdU included during the period equivalent to the second round of the cell cycle after mitogen addition. Orlistat inhibited proliferation induced by complete endothelial medium (containing a undefined mixture of mitogens), by bFGF and by VEGF. […] Cell proliferation was measured by incorporation of BrdU. HUVEC were seeded in 96 well plates at a density of 2000 cells/well and cultured in Endothelial Growth medium (EGM; Clonetics, Walkerville, Md.) for 24 h at 37° C. Cells were serum-starved for further 24 h in Endothelial Basal Medium (EBM; Clonetics, Walkerville, Md.)+0.2% FCS. Medium was replaced with orlistat (40-0 uM) diluted in (A) EGM, (B) EBM+2% FCS+bFGF (5 ng/ml), (C) EBM+2% FCS+VEGF (20 ng/ml) or (D) EBM+0.2% FCS. Cells were incubated 48 h at 37 deg C., with BrdU present during the final 24 h. Medium was removed, the cell monolayers fixed, and BrdU incorporation measured by ELISA. Proliferation was expressed as a percentage of that measured in the absence of orlistat.

Experiment [3] relates to cellular fatty acid synthesis. In words: [14C]-acetate incorporation into fatty acids, prostate tumor cells. Type of experiment: cell-based. To be noted: level of orlistat inhibiting about 90% of activity-based labeling of FAS. As for the experimental part: Studies were performed to determine the effect of orlistat on tumor cells. As a first step, we measured the ability to inhibit the activity of FAS in whole cells. […] . A concentration-dependent inhibition of labeling by FP-Bodipy was evident (FIG. 2; top panel), indicating enzyme inhibition. […] .
Inhibition of fatty acid synthesis by orlistat.

A further experiment relates to normal HMECs. Description: Apoptosis by DNA fragmentation ELISA.
Experiment [4] concerns hydrolase migrating at 31 kDa. In words: FP-TAMRA labeling of serine hydrolases in mammary cell lysates. Type of experiment: biochemical, human. As for the experimental part: (§1) The serine hydrolase activity profiles of the prostate cell lines were measured using the fluorophosphonate probe fp-PEG-TAMRA using methods described previously (Liu et al., supra; Kidd et al., supra). Briefly, 40 μl of a 1 mg/ml solution of the soluble fractions of each cell lines were treated with 2 μM fp-PEG-TAMRA for one hour at ambient temperature. The labeling reactions were stopped by the addition of Laemmli buffer followed by boiling for 5 minutes. As a control for non-specific reaction of the probe, a duplicate sample was boiled for ten minutes prior to labeling with fp-PEG-TAMRA to denature all enzymatic activity. The labeled samples were resolved by 10% SDS-PAGE and visualized by scanning with a Hitachi flatbed scanner at 605 nm.
(§2) Ebelactone A and B stocks were made in DMSO. Orlistat was made in EtOH. Cell lysate were generated at 1 mg/ml as described above. Samples (40 μg) were incubated with inhibitors for twenty minutes prior to addition of fp-PEG-TAMRA. The final concentration of DMSO or EtOH in each reaction was 10%. The labeling reactions were stopped by the addition of Laemmli sample buffer and samples were resolved on 10% SDS-PAGE and visualized.
(§3) Labeling of serine hydrolases in the cell lysates with FP-TAMRA was challenged with each of the beta-lactones Inhibition experiments were performed under pre-steady state conditions, so that relative IC50 values could be compared. […] Tetrahydrolipstatin is selective for the hydrolase at 270 kDa that is expressed in breast cancer cell lines.

Experiment [5] relates to hydrolase expressed at 28 kDa. The experiment is described as above. Type of experiment: biochemical, human. As to the method:
as §1, §2, §3

The mark [6] stands for this setting: recombinant FAS TE, 4-MUH substrate, 30 min pre-incubation at 37 deg.C, read-out: apparent Ki.

Like-named read-outs stand apart in the source and are kept apart here.

T1 sequence (P49327 2207-2511 limits assumed): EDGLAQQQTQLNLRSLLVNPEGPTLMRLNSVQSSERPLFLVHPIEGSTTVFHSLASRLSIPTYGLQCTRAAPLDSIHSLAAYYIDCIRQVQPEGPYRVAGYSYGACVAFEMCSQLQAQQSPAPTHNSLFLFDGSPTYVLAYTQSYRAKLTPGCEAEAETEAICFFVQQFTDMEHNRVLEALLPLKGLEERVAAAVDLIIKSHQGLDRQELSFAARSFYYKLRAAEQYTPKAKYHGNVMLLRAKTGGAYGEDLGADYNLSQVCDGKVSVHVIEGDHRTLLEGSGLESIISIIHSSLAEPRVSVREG

Take `CCCCC[C@@H]1OC(=O)[C@@H]1CCCC` (stereo in doubt) [3a, (3R,4S)-3-butyl-4-pentyloxetan-2-one]: in experiment [1] (setting [6]), the Ki is 23.1 ± 4.2 µM.

Consider `O=C1O/C(=C\CC2CCCCC2)[C@@H]1CC1CCCCC1` [2c], for which the Ki in experiment [1] (setting [6]) is > 100 µM.

Take `O=C1O/C(=C\Cc2ccccc2)[C@@H]1Cc1ccccc1` [2d]: the Ki in experiment [1] (setting [6]) was 5.04 ± 2.1 µM.

As to `O=C1O[C@H](CCC2CCCC2)[C@@H]1CC1CCCC1` [3b], the Ki in experiment [1] (setting [6]) came out at 13.5 ± 7.8 µM.

For the compound `O=C1O[C@H](CCC2CCCCC2)[C@@H]1CC1CCCCC1` [3c], in experiment [1] (setting [6]), the Ki was 7.7 ± 0.43 µM.

`O=C1O[C@H](CCc2ccccc2)[C@@H]1Cc1ccccc1` [3d]: the Ki in experiment [1] (setting [6]) came out at 2.5 ± 0.47 µM.

For the compound `COC(=O)CC[C@H]1OC(=O)[C@H]1CC(=O)OC` [3e], the Ki in experiment [1] (setting [6]) is > 100 µM.

In the case of `CCCCC[C@@H]1OC(=O)[C@]1(C)CCCC` [8a, (3R,4S)-3-butyl-3-methyl-4-pentyloxetan-2-one], the Ki in experiment [1] (setting [6]) was found to be 14.6 ± 4 µM.

Take `CCCCC[C@@H]1OC(=O)[C@@]1(CCCC)Cc1ccccc1` [8b, (3S,4S)-3-benzyl-3-butyl-4-pentyloxetan-2-one]: the Ki in experiment [1] (setting [6]) worked out at 19.2 ± 0.36 µM.

For `CCCCCCCCCCC[C@@H](C[C@@H]1OC(=O)[C@H]1CCCCCC)OC(=O)[C@H](CC(C)C)NC=O` [Orlistat, tetrahydrolipstatin], the EC50 in the experiment on MDA-MB-435 cells was ~4 µM. In addition, the “reduction of incorporation of [14C]-acetate into cellular fatty acids” value in experiment [2] was “approximately 70%”. Moreover, the IC50 is 1250 nM in the experiment on HUVEC (VEGF), 1000 nM in the experiment on HUVEC (bFGF) and 4000 nM in the experiment with HUVEC (complete medium). Also, in the experiment with HUVEC (complete medium, bFGF or VEGF), the “concentration at which maximum inhibition of proliferation was achieved” value was ≥ 10 µM. The “maximum inhibition of proliferation” value is on record as ~80% in the experiment on HUVEC (stimulated with VEGF), ~90% with HUVEC (stimulated with bFGF) and ~90% with HUVEC (stimulated with complete medium). For the same compound, in experiment [3], the “reduction of total cellular fatty acid synthesis” value was “approximately 70%”. Also, the “apoptotic response across a range of orlistat” value in the experiment with normal HMECs is “No effect”.

On to `CC[C@H](C)[C@@H](O)[C@H](C)C(=O)[C@H](C)/C=C(\C)C[C@H](C)C1OC(=O)[C@H]1C` (some centres unmarked) [ebelactone A], for which, in experiment [4], the “inhibition of labeling of 31 kDa hydrolase” value is given as “far less effective”. Also, the “inhibition of labeling of 28 kDa hydrolase” value in experiment [5] is “potent inhibitor”.

On to `CC[C@@H]1C(=O)OC1[C@@H](C)C/C(C)=C/[C@@H](C)C(=O)[C@@H](C)[C@H](O)[C@@H](C)CC` (some centres unmarked) [ebelactone B], for which the “inhibition of labeling of 31 kDa hydrolase” value in experiment [4] was “abolished labeling”. Besides, the “inhibition of labeling of 28 kDa hydrolase” value in experiment [5] is given as “little effect”.

For the compound `CCCCC[C@H]1OC(=O)[C@@H]1CCCC` [trans-3a, (3R,4R)-3-butyl-4-pentyloxetan-2-one], the Ki in experiment [1] (setting [6]) turned out to be 4.01 ± 1.9 µM.

With `O=C1O[C@H](CCc2ccccc2)[C@H]1Cc1ccccc1` [trans-3d], the Ki in experiment [1] was found to be 3.3 ± 0.2 µM.
